Assay results reported in patent US20220152174A1, “Cancer Antigen Peptide” (National University Corporation Asahikawa Medical University, priority 2018, published 2022).

How the values were obtained:
[1] = test system: SYCP3-A-specific Th cells; assay: IFN-γ ELISA of SYCP3-A peptide-specific Th cells co-cultured with PBMCs; type: cell-based, human; details: for IFN-γ production of SYCP3-A peptide-specific Th cells: peptide 3 μg/mL, Th cells plus PBMCs of same donor
Procedure: PBMCs were collected from peripheral blood samples of healthy donors by a density gradient separation method using Lymphoprep (Alere Technologies AS 1114547). CD14 positive cells were separated from PBMCs using a magnetic cell separation system (Miltenyi 130-050-201). Differentiation into dendritic cells (DCs) was induced by culturing the cells in the presence of 50 ng/mL GM-CSF (peprotech AF-300-03) and 50 ng/mL IL-4 (peprotech AF-200-04) with 3 mL of a culture medium for human cells in 6-well culture plates (Falcon 353046) for 7 days. The culture medium was AIM-V medium (ThermoFisher SCIENTIFIC 0870112DK) supplemented with 3% of human AB serum (Innovative RESEARCH IPLA-SERAB) inactivated at 56° C. for 30 minutes. Similarly, CD4-positive T-cells were isolated from PBMCs (Miltenyi 130-045-101), and 1×10^5 CD4-positive T-cells were co-cultured with 5×10^4 DCs in the presence of SYCP3-A or SPESP1-B peptide (3 μg/mL) in 96-well flat bottom culture plates (Falcon 353072) at the volume of 200 μL. After 7 days, in order to stimulate the CD4-positive T-cells with the peptide, 100 μL of the culture supernatant was removed from each well, and then SYCP3-A or SPESP1-B peptide (3 μg/mL) and PBMCs (2×10^5) inactivated by gamma-irradiation (40 Gy) were added at the volume of 100 μL. After 2 days, 50 μL of the culture supernatant was removed, and 50 μL of IL-2 (Imunace35, Shionogi) was added at the final concentration of 10 U/mL. For continuous proliferation of the activated CD4-positive T-cells, the cells (1×10^6 cells) were stimulated with SYCP3-A or SPESP1-B peptide and the inactivated PBMCs (1×10^6 cells) every other week and used for the experiments described below.
In order to study the HLA-restriction of the CD4-positive T-cells, an anti-DR antibody (BioLegend 307612) or an anti-HLA-class I antibody (BioLegend 311412) as a control was added to some cultures at the final concentration of 5 μg/mL.

[2] = test system: CD4-positive T-cells; assay: IFN-γ ELISPOT after peptide vaccination of HLA transgenic mice; type: in vivo, mouse; details: A2.DR1-Tg mice vaccinated with partial peptides, stimulation 3 μg/mL, 24 hours
Procedure: HLA-A*02:01/DRB1*01:01 transgenic mice (A2.DR1-Tg mice, […]; Pasteur Institute, France) were intradermally injected with SYCP3-A peptide (synthesized by GenScript) dissolved in 100 μL of PBS using Myjector on Days […]. The mice were euthanized by intraperitoneally administering 200 μL of 500 μg/mL pentobarbital on Day 15. After laparotomy, tumor-draining lymph nodes (dLNs) and spleens were collected and lymphocytes and splenocytes, respectively, were isolated.
The lymphocytes (3×10^5 cells) and the splenocytes (5×10^5 cells) were added to ELISPOT plates (EMD Millipore, MAHAS4510), and the cells were co-cultured in the presence of a control peptide (a peptide of 15 amino acid residues having a sequence not included in SYCP3) or SYCP3-A peptide selected in Test 4 (3 μg/mL) in the complete medium at 150 μL/well for […]. In order to detect the cells producing IFN-γ specifically to SYCP3-A peptide, the ELISPOT assay was performed using a mouse IFN-γ ELISpot BASIC (ALP) kit (MABTECH 3321-2A). The procedure was in accordance with the description of the attached package insert. BCIP-NBT-plus substrate for ELISpot (MABTECH 3650-10) was used as a chromogenic substrate, and PBS-T was used for washing at each step. In addition, in order to confirm that the reaction is produced by CD4-positive T-cells, an anti-mouse CD4 antibody (BioLegend 100435) or an anti-mouse CD8 antibody (BioLegend 100735) was added to some cultures at the final concentration of 5 μg/mL.
As described above, A2.DR1-Tg mice were vaccinated with these partial peptides, dLNs and spleens were collected from each mouse, lymphocytes and splenocytes were isolated, the cells were stimulated with each partial peptide (3 μg/mL) for 24 hours, and the T-cell responses were determined by ELISPOT. CD4-positive T-cells responded to the partial peptides T2, T3, and T4.

[3] = test system: HLA-DR4, DR8, DR9, DR15, DR53; assay: HLA type restriction of partial DAZL-1 peptides with L-DR cells; type: cell-based, human
[4] = test system: helper T-cells; assay: IFN-γ ELISA after DAZL-1C vaccination of Balb/c mice; type: in vivo, mouse
Procedure: Two BALB/cAnNCrlCrlj mice (Balb/c, 10 to 16 weeks old, Charles river) were intradermally injected with 100 μg/50 μL DAZL-1C peptide ([…] (SEQ ID NO: 20): synthesized by GenScript) dissolved in phosphate-buffered saline (PBS, KANTO CHEMICAL CO., INC. 73111) using Myjector (TERUMO SS_05M2913) on Days 0 and 10. The mice were euthanized by intraperitoneally administering 200 μL of 500 μg/mL pentobarbital (nacalai tesque 02095-04) on Day 12. After laparotomy, dLNs and spleens were collected and lymphocytes and splenocytes, respectively, were isolated.
The lymphocytes (3×10^5 cells) and the splenocytes (5×10^5 cells) were added to 96-well flat bottom culture plates (Falcon 353072), and the cells were co-cultured in the presence of a control peptide or DAZL-1C peptide (2.5 μg/mL) in the complete medium at 200 μL/well for 24 hours. In order to detect IFN-γ production specific to DAZL-1C peptide, each 100 μL of the culture supernatants after 24 hours were collected, and the IFN-γ concentrations were determined using an ELISA set (BD Biosciences 551866) in accordance with the description of the attached package insert. In order to confirm that the reaction is produced by CD4-positive T-cells, an anti-mouse CD4 antibody (aCD4; BioLegend 100435) or an anti-mouse CD8 antibody (aCD8; BioLegend 100735) was added to some cultures at the final concentration of 5 μg/mL.

[5] = test system: DAZL1-specific Th cells; assay: IFN-γ ELISA of DAZL-1 peptide-specific Th cells; type: cell-based, human
Procedure: (§1) PBMCs were collected from peripheral blood samples of healthy donors by a density gradient separation method using Lymphoprep (Alere Technologies AS 1114547). CD14 positive cells were separated from PBMCs using a magnetic cell separation system (Miltenyi 130-050-201). Differentiation into dendritic cells (DCs) was induced by culturing the cells in the presence of 50 ng/mL GM-CSF (peprotech AF-300-03) and 50 ng/mL IL-4 (peprotech AF-200-04) with 3 mL of a culture medium for human cells in 6-well culture plates (Falcon 353046) for 7 days. The culture medium was AIM-V medium (ThermoFisher SCIENTIFIC 0870112DK) supplemented with 3% of human AB serum (Innovative RESEARCH IPLA-SERAB) inactivated at 56° C. for 30 minutes. Similarly, CD4-positive T-cells were isolated from PBMCs (Miltenyi 130-045-101), and 1×10^5 CD4-positive T-cells were co-cultured with 5×10^4 DCs in the presence of SYCP3-A or SPESP1-B peptide (3 μg/mL) in 96-well flat bottom culture plates (Falcon 353072) at the volume of 200 μL. […]
The IFN-γ concentrations of the culture supernatants were determined in the same manner as in Test 8, except that partial DAZL-1 peptide p11, p12, or p13 was used instead of SYCP3-A peptide. […]

[6] = target: T1, HLA-DR53 (Homo sapiens, UniProt P01903+P13762); assay: HLA type restriction of SYCP3-A with L-DR mouse fibroblast cells; type: cell-based; details: SYCP3-A 3 μg/mL, L-DR53 cells, 24 to 48 hours
T1 construct: expressed in transfected cells; host or cells: mouse fibroblast cell line L-DR53
Procedure: (§2) Furthermore, in order to identify the HLA type to which the peptide is restricted, the CD4-positive T-cells (5×10^4 cells) and 3×10^4 cells of a mouse fibroblast cell line having HLA-DR4, DR8, DR9, or DR53 gene (L-DR4, L-DR8, L-DR9, or L-DR53) were co-cultured in the presence of SYCP3-A peptide (3 μg/mL) in 96-well flat bottom culture plates using 200 μL of the culture medium for human cells, and after 24 to 48 hours the IFN-γ concentrations in the culture supernatants were determined as described above.

[7] = test system: HLA-DR53; assay: as above; type: cell-based, human; details: SYCP3-A 3 μg/mL
Procedure: as §2

[8] = target: T1, HLA-DR53; assay: HLA type restriction of SPESP1-B with L-DR53; type: cell-based
Procedure: The IFN-γ concentrations of the culture supernatants were determined in the same manner as in Test 8, except that SPESP1-B peptide was used instead of SYCP3-A peptide. Two SPESP1-B-specific Th cell clones (HK15 and HK18) were established from one healthy donor. The peptide-specific IFN-γ production was suppressed when the anti-HLA-DR antibody (aDR) was added to the clones.

[9] = test system: SPESP1-B-specific Th cells; assay: IFN-γ ELISA of SPESP1-B peptide-specific Th cells; type: cell-based, human
Procedure: as §1
The IFN-γ concentrations of the culture supernatants were determined in the same manner as in Test 8, except that SPESP1-B peptide was used instead of SYCP3-A peptide. […]

[10] = test system: SYCP3, SPESP1, and DAZL1 gene expression in EBC1, Lu65, and HT-29; assay: Gene expression in cancer cell lines cultured with gemcitabine; type: cell-based, human; details: EBC1, Lu65, HT-29 cultured in the presence of gemcitabine

T1 sequence (P13762 30-266): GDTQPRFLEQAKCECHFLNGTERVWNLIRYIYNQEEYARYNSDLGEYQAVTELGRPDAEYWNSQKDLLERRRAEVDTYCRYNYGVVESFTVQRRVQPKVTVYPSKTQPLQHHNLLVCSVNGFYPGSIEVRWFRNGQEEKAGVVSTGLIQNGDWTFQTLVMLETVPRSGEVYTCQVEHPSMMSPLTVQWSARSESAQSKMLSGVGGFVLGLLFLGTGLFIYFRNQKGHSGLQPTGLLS
T1 sequence (P01903 26-254): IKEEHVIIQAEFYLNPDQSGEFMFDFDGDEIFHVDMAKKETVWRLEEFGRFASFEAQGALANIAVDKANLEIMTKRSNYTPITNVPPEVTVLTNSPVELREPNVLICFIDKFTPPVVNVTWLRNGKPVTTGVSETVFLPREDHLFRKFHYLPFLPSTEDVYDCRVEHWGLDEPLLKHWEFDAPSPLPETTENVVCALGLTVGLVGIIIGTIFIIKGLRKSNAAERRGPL

Q: For “QQQKILQQSRVVQSQRLKT (listed as Homo sapiens) [SEQ ID NO: 31, 11th isoleucine residue of SYCP3-A peptide substituted with a valine residue]”, which “reactivity of SYCP3-A peptide-specific Th cells compared with SYCP3-A” value ([1]; modified or substituted peptide, similarly tested) is on record?
A: not decreased

Q: What does the source list for “KILQQSRIVQSQ (listed as Homo sapiens) [T4]”?
A: IFN-γ production of SYCP3-A peptide-specific Th cells [1]: Increased IFN-γ production; T-cell response of CD4-positive T-cells to partial peptide by ELISPOT [2]: responded

Q: For “INFHGKKLKLGPAIRKQNLC (listed as Homo sapiens) [p12]”, which “HLA type bound to stimulate Th cells” value [3] is on record?
A: HLA-DR15

Q: For “DVQKIVESQINFHGKKLKLGPAIRKQNLC (listed as Homo sapiens) [DAZL-1C]”, which “ability to activate helper T-cells (peptide-specific IFN-γ production)” value ([4]; Balb/c mice, 100 μg i.d. Days 0 and 10, restimulation 2.5 μg/mL, 24 hours) is on record?
A: activates helper T-cells

Q: And the “IFN-γ production specific to peptide with anti-CD4 antibody” value ([4]; anti-mouse CD4 antibody 5 μg/mL)?
A: inhibited

Q: Which “IFN-γ production with anti-HLA-DQ antibody” value [5] does the source give for “LGPAIRKQNLCAYHVQPRPL (listed as Homo sapiens) [p13]” here?
A: suppressed

Q: What about the “HLA type bound to stimulate Th cells” value [3] of the same molecule?
A: HLA-DR8

Q: “QQQKILQQSRIVQSQRLKT (listed as Homo sapiens) [SYCP3-A]” was tested. Which “peptide-specific reaction (IFN-γ) of Th cells to L-DR53 cells” value [6] did it give?
A: strong peptide-specific reactions

Q: And the “reactivity in samples having no DR53 allele” value [7]?
A: some reactivity

Q: What about the “peptide-specific IFN-γ production with anti-HLA-DR antibody” value ([1]; SYCP3-A 3 μg/mL, aDR 5 μg/mL, Th clones from three healthy donors) of the same molecule?
A: suppressed

Q: For “QQKILQQSRIVQ (listed as Homo sapiens) [T2]”, which “T-cell response of CD4-positive T-cells to partial peptide by ELISPOT” value [2] is on record?
A: responded

Q: Which results are given for “QNLNHYIQVLENLVRSVPS (listed as Homo sapiens) [SPESP1-B]”?
A: HLA type binding and Th cell stimulation [8]: binds to HLA-DR53 and stimulates Th cells; peptide-specific IFN-γ production with anti-HLA-DR antibody ([9]; clones HK15 and HK18, aDR): suppressed; IFN-γ production at low concentration ([9]; peptide 0.0003 μg/mL (serially diluted 0.0003 to 30 μg/mL)): sufficient IFN-γ production

Q: For “DVQKIVESQINFHGKKLKLG (listed as Homo sapiens) [p11]”, which “HLA type bound to stimulate Th cells” value [3] is on record?
A: HLA-DR4/9/53

Q: How did the “gene expression levels of SYCP3, SPESP1, and DAZL1” value [10] turn out when Nc1ccn([C@@H]2O[C@H](CO)[C@@H](O)C2(F)F)c(=O)n1 [gemcitabine] was run?
A: equivalent to those of the controls

Q: How did the “IFN-γ production of SYCP3-A peptide-specific Th cells” value [1] turn out when “QKILQQSRIVQS (listed as Homo sapiens) [T3]” was run?
A: Increased IFN-γ production

Q: And the “T-cell response of CD4-positive T-cells to partial peptide by ELISPOT” value [2]?
A: responded
